Test results taken from US8450454B2, “Compositions for inhibiting ABAD/ABeta protein interaction” (The Trustees of Columbia University in the City of New York, priority 2004, dated 2013).
Ends that are not written are not given here.

T1: ABAD (Homo sapiens, UniProt Q99714)
T1 construct: made in house
T1 sequence (Q99714 1-261): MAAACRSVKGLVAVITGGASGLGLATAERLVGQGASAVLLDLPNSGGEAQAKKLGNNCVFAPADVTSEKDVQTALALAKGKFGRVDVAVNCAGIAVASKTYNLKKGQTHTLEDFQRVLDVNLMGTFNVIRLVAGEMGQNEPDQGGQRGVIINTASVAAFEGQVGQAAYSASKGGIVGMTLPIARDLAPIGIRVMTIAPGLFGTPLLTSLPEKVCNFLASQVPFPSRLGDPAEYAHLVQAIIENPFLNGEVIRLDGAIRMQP

B1: GST-ABAD(1-186): GST-ABAD truncation mutant, residues 1-186 (protein)
chain: MAAACRSVKGLVAVITGGASGLGLATAERLVGQGASAVLLDLPNSGGEAQAKKLGNNCVFAPADVTSEKDVQTALALAKGKFGRVDVAVNCAGIAVASKTYNLKKGQTHTLEDFQRVLDVNLMGTFNVIRLVAGEMGQNEPDQGGQRGVIINTASVAAFEGQVGQAAYSASKGGIVGMTLPIARDL
modifications: left off: a dimerising Fc or GST
B2: S98A, K99A, Y101A: site-directed ABAD mutant (protein, UniProt Q99714 2-261, looked up, variant S98A K99A Y101A)
3-hydroxyacyl-CoA …: AAACRSVKGLVAVITGGASGLGLATAERLVGQGASAVLLDLPNSGGEAQAKKLGNNCVFAPADVTSEKDVQTALALAKGKFGRVDVAVNCAGIAVAAATANLKKGQTHTLEDFQRVLDVNLMGTFNVIRLVAGEMGQNEPDQGGQRGVIINTASVAAFEGQVGQAAYSASKGGIVGMTLPIARDLAPIGIRVMTIAPGLFGTPLLTSLPEKVCNFLASQVPFPSRLGDPAEYAHLVQAIIENPFLNGEVIRLDGAIRMQP
B3: GST-ABAD(159-261): GST-ABAD truncation mutant, residues 159-261 (protein)
chain: FEGQVGQAAYSASKGGIVGMTLPIARDLAPIGIRVMTIAPGLFGTPLLTSLPEKVCNFLASQVPFPSRLGDPAEYAHLVQAIIENPFLNGEVIRLDGAIRMQP
modifications: left off: a dimerising Fc or GST
B4: GST-ABAD(1-158): GST-ABAD truncation mutant, residues 1-158 (protein)
chain: MAAACRSVKGLVAVITGGASGLGLATAERLVGQGASAVLLDLPNSGGEAQAKKLGNNCVFAPADVTSEKDVQTALALAKGKFGRVDVAVNCAGIAVASKTYNLKKGQTHTLEDFQRVLDVNLMGTFNVIRLVAGEMGQNEPDQGGQRGVIINTASVAA
modifications: left off: a dimerising Fc or GST

Tests used:
[1] = tested on: cultured neurons; experiment: LDH release from cultured neurons; assay type: cell-based, mouse; details: neurons from Tg mAPP/ABAD mice (spontaneous) and Tg ABAD mice exposed to Aβ, peptide pretreatment
[2] = tested on: cultured neurons; experiment: DNA fragmentation (Cell Death Detection ELISA) in cultured neurons; assay type: cell-based, mouse; details: neurons from Tg mAPP/ABAD mice (spontaneous) and Tg ABAD mice exposed to Aβ, peptide pretreatment
[3] = biological target: T1, ABAD; experiment: Binding of fluorescein-labeled ABAD to amyloid-related peptide immobilized on microtiter wells
[4] = biological target: T2, ABAD-Aβ (1-40) interaction (Homo sapiens, UniProt P05067); experiment: Surface plasmon resonance (Biacore): inhibition of Aβ (1-40) binding to immobilized ABAD; details: one-site competitive inhibition fit
T2 construct: made in house
T2 sequence (P05067 672-711): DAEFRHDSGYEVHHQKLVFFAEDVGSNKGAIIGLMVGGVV
Description: (§1) 3) and ABAD reverse peptide (ABAD-RP, residues 120-92) were synthesized by Biotechnology Lab at Yale University. For binding studies, ABAD was immobilized on CM5 sensor chip (29). […] The reaction/binding buffer contained 50 mM Hepes at pH 7.4, 0.15 M NaCl, 1 mM EDTA, and 0.005% Tween 20. Data analysis was performed using Biacore X biosensor system (Uppsala, Sweden) and BIA evaluation 3.0 software (Biacore, Sweden). Response data are plotted in Resonance Units versus ABAD peptide concentrations (nM), and were fit to a one-site model for competitive inhibition to obtain the Ki.

[5] = biological target: T3, ABAD-Aβ (1-42) interaction (Homo sapiens, UniProt P05067); experiment: Surface plasmon resonance (Biacore): inhibition of Aβ (1-42) binding to immobilized ABAD; details: one-site competitive inhibition fit
T3 construct: made in house
T3 sequence (P05067 672-713): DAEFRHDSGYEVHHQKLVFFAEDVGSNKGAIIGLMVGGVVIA
Description: as §1

[6] = biological target: Aβ (1-42) (Homo sapiens, UniProt P05067); experiment: Binding of 125I-labeled GST-ABAD or ABAD mutants to immobilized Aβ (1-42); parameters: key: +: Specific binding comparable to that observed with wild type ABAD; −: No observed specific binding; details: 125I-labeled GST-ABAD or ABAD to immobilized Aβ (1-42)
Sequence of Aβ (1-42) (P05067 672-713): as above

[7] = biological target: Aβ (1-40) (Homo sapiens, UniProt P05067); experiment: Surface plasmon resonance: Aβ (1-40) binding to immobilized wild-type or mutant ABAD; details: ABAD immobilized on sensor chip, Aβ (1-40) mobile phase
Sequence of Aβ (1-40) (P05067 672-711): as the sequence (P05067 672-711) above
Description: […]; SEQ ID NO. 3) and ABAD reverse peptide (ABAD-RP, residues 120-92) were synthesized by Biotechnology Lab at Yale University. For binding studies, ABAD was immobilized on CM5 sensor chip (29). […] The reaction/binding buffer contained 50 mM Hepes at pH 7.4, 0.15 M NaCl, 1 mM EDTA, and 0.005% Tween 20. Data analysis was performed using Biacore X biosensor system (Uppsala, Sweden) and BIA evaluation 3.0 software (Biacore, Sweden). Response data are plotted in Resonance Units versus ABAD peptide concentrations (nM), and were fit to a one-site model for competitive inhibition to obtain the Ki.

Molecule	binding to ABAD (in words) [3]	Aβ Binding [6]	other results
CC[C@H](C)[C@H](NC(=O)CNC(=O)[C@H](C)N)C(=O)N[C@@H](C)C(=O)N[C@H](C(=O)N[C@@H](C)C(=O)N[C@@H](CO)C(=O)N[C@@H](CCCCN)C(=O)N[C@H](C(=O)N[C@@H](Cc1ccc(O)cc1)C(=O)N[C@@H](CC(N)=O)C(=O)N[C@@H](CC(C)C)C(=O)N[C@@H](CCCCN)C(=O)N[C@@H](CCCCN)C(=O)NCC(=O)N[C@@H](CCC(N)=O)C(=O)N[C@H](C(=O)N[C@@H](Cc1c[nH]cn1)C(=O)N[C@H](C(=O)N[C@@H](CC(C)C)C(=O)N[C@@H](CCC(=O)O)C(=O)N[C@@H](CC(=O)O)C(=O)N[C@@H](Cc1ccccc1)C(=O)N[C@@H](CCC(N)=O)C(=O)N[C@@H](CCCNC(=N)N)C(=O)N[C@H](C(=O)N[C@@H](CC(C)C)C(=O)N[C@@H](CC(=O)O)C(=O)N[C@H](C(=O)O)C(C)C)C(C)C)[C@@H](C)O)[C@@H](C)O)[C@@H](C)O)C(C)C [ABAD-DP]			LDH release (cytotoxicity) [1]: attenuated cytotoxicity; DNA fragmentation (cytotoxicity) [2]: attenuated cytotoxicity
CC[C@H](C)[C@H](NC(=O)[C@H](C)NC(=O)CNC(=O)[C@H](Cc1ccccc1)NC(=O)[C@H](CC(N)=O)NC(=O)[C@H](CC(N)=O)NC(=O)[C@H](CO)NC(=O)[C@H](CO)NC(=O)[C@H](Cc1c[nH]cn1)NC(=O)[C@@H](NC(=O)[C@H](CC(C)C)NC(=O)[C@H](Cc1ccccc1)NC(=O)[C@H](CC(N)=O)NC(=O)[C@H](C)NC(=O)[C@H](CC(C)C)NC(=O)[C@H](CCCNC(=N)N)NC(=O)[C@H](CCC(N)=O)NC(=O)[C@@H](NC(=O)[C@H](C)NC(=O)[C@@H]1CSSC[C@H](NC(=O)[C@@H](N)CCCCN)C(=O)N[C@@H](CC(N)=O)C(=O)N[C@@H]([C@@H](C)O)C(=O)N[C@@H](C)C(=O)N[C@@H]([C@@H](C)O)C(=O)N1)[C@@H](C)O)C(C)C)C(=O)N[C@@H](CC(C)C)C(=O)N[C@@H](CO)C(=O)N[C@@H](CO)C(=O)N[C@H](C(=O)N[C@@H](CC(N)=O)C(=O)N[C@H](C(=O)NCC(=O)N[C@@H](CO)C(=O)N[C@@H](CC(N)=O)C(=O)N[C@H](C(=O)N[C@@H](Cc1ccc(O)cc1)C(N)=O)[C@@H](C)O)C(C)C)[C@@H](C)O [Amylin]	did not bind		
CC(C)C[C@H](NC(=O)[C@H](CCCCN)NC(=O)[C@H](CCC(N)=O)NC(=O)[C@H](Cc1c[nH]cn1)NC(=O)[C@H](Cc1c[nH]cn1)NC(=O)[C@@H](NC(=O)[C@H](CCC(=O)O)NC(=O)[C@H](Cc1ccc(O)cc1)NC(=O)CNC(=O)[C@H](CO)NC(=O)[C@H](CC(=O)O)NC(=O)[C@H](Cc1c[nH]cn1)NC(=O)[C@H](CCCNC(=N)N)NC(=O)[C@H](Cc1ccccc1)NC(=O)[C@H](CCC(=O)O)NC(=O)[C@H](C)NC(=O)[C@@H](N)CC(=O)O)C(C)C)C(=O)N[C@H](C(=O)N[C@@H](Cc1ccccc1)C(=O)N[C@@H](Cc1ccccc1)C(=O)O)C(C)C [Aβ 1-20]	dose-dependent binding		
GSNKGAIIGLM [Aβ 25-35]	no specific binding		Kd ([3]; peptide immobilized on microtiter wells, fluorescein-labeled ABAD added): > 1000 nM
VDLVRQFDELTHTQGKKLNYTKSAVAIGA [ABAD-RP, reference compound]			inhibitory constant, binding of Aβ (1-40) to immobilized intact ABAD [4]: completely inactive; DNA fragmentation (cytotoxicity) [2]: not; inhibitory constant, binding of Aβ (1-42) to immobilized intact ABAD [5]: completely inactive
B1		+	
B2		−	interaction with Aβ in surface plasmon resonance [7]: no specific interaction
B3		−	
B4		+	
